Source: patent US9133437B2, “Cell proliferation-promoting peptide and use thereof” (TOAGOSEI CO. LTD., priority 2009, dated 2015)
Where no end group is shown, it is not given here.

Test system: Rat bone marrow stem cells (mesenchymal stem cells)
Assay: Cell proliferation-promoting activity, WST-8 colorimetry (OD450)
Format: cell-based
Conditions: WST-8, 2 hours; for OD450 day 4: four days from start of incubation; for OD450 day 4 / OD450 day 2: bFGF at 10 ng/mL; for OD450 Start: start of the incubation (day 0), 1×10^3 cells per well; for OD450 day 2: two days from start of incubation
Description: The cell proliferation-promoting peptides (Samples 1 to 8) obtained in Example 1 and the peptides composed of only a (A) part sequence (Samples 9 to 11) which had been prepared for comparison were evaluated, respectively, on the cell proliferation-promoting activity. Sample 12 was an experimental control where a commercial bFGF was used as the cell proliferation promoter. Sample 13 was an experimental control where no peptide was added (bFGF was not added, either). The evaluation assay is described in detail below. Each synthesized peptide sample was dissolved in PBS (phosphate buffered saline) to prepare a stock solution having a peptide concentration of 1 mM.
Rat bone marrow stem cells (mesenchymal stem cells) were used as the test cells. In particular, the test stem cells were subcultured in Dulbecco MEM (DMEM: a Gibco product) containing 10% fetal bovine serum (FBS: a Gibco product), 2 mM of L-glutamine, 50 unit/mL of penicillin, and 50 μg/mL of streptomycin. Passage 2 cells were used for the evaluation.
The test stem cells that had been pre-incubated overnight in the DMEM containing 10 ng/mL of bFGF were collected and seeded at 1×10^3 cells per well in a 96-well plate. The amount of the culture medium was […] per well.
Then, the stock solutions containing respective peptides of Samples 1 to 11 were added to some wells, one for each well. For comparison, a commercial bFGF (a PeproTech product) was added at a concentration of 10 ng/mL to some other wells (Sample 12). Similarly, yet some other wells were set up to not to contain any of the sample peptides or bFGF (Sample 13).
After a sample peptide or bFGF was added as described above, the 96-well plate was placed in a CO2 incubator and incubated standing at 37° C. and 5% CO2. Exchange of the culture medium was carried out every other day. The culture medium used for an exchange was the same as the culture medium used initially for the incubation (i.e., for the group containing a sample peptide or bFGF, the same sample peptide or bFGF was added to the exchanged culture medium).
During the course of this incubation assay, water-soluble tetrazolium salt (WST-8) was added to some wells as a staining reagent at the start of the incubation (day 0), when two days had passed from the start (day 2) and when four days had passed from the start (day 4). Incubated for 2 hours after the addition, the cell culture medium with the added staining reagent was collected. The level of cell proliferation was evaluated by colorimetry as optical density measured at 450 nm (OD450) based on reduction of the tetrazolium salt.

Row | Substance | OD450 day 4 | OD450 Start | OD450 day 2
1 | TLKERCLQVVRSLVK KKRTLRKNDRKKR (TLKERCLQVVRSLVKKKRTLRKNDRKKR) [Sample 1] | 2.369 | 0.124 | 1.264
2 | KKRTLRKNDRKKR (KKRTLRKNDRKKR-NH2) [Sample 9, reference compound] | 1.260 | 0.124 | 0.648
3 | KKRTLRKNDRKKR LLGNSSPRTQSPQNC (KKRTLRKNDRKKRLLGNSSPRTQSPQNC-NH2) [Sample 3] | 2.289 | 0.124 | 1.177
4 | YGRKKRRQRRRTLKERCLQVVRSLVK (YGRKKRRQRRRTLKERCLQVVRSLVK-NH2) [Sample 7] | 2.279 | 0.124 | 1.340
5 | Sample 12: experimental control: commercial bFGF (basic fibroblast growth factor, a PeproTech product) at 10 ng/mL | 1.977 | 0.124 | 1.022
6 | KKRTLRKNDRKKR TLKERCLQVVRSLVK (KKRTLRKNDRKKRTLKERCLQVVRSLVK) [Sample 4] | 2.410 | 0.124 | 1.357
7 | YARAAARQARA TLKERCLQVVRSLVK (YARAAARQARATLKERCLQVVRSLVK) [Sample 5] | 1.971 | 0.124 | 0.926
8 | YARAAARQARA (YARAAARQARA-NH2) [Sample 10, reference compound] | 1.737 | 0.124 | 0.770
9 | WRRQARFK [Sample 11, reference compound] | 1.744 | 0.124 | 0.799
10 | TLDGGDIINALCFS KKRTLRKNDRKKR (TLDGGDIINALCFSKKRTLRKNDRKKR-NH2) [Sample 2] | 2.259 | 0.124 | 1.133
11 | WRRQARFK TLKERCLQVVRSLVK (WRRQARFKTLKERCLQVVRSLVK) [Sample 6] | 2.365 | 0.124 | 1.181
12 | YARAAARQARA SLQYLCRFVIRQYTR (YARAAARQARASLQYLCRFVIRQYTR-NH2) [Sample 8] | 1.828 | 0.124 | 0.856
